{"source": "patent US20100216751A1", "about": "(priority 2007, published 2010)", "assay": "Solubility of bevirimat and bevirimat dimeglumine in single vehicles", "details": "in 100% water, 100% saline, 100% dextrose, 100% PEG 400, and 25% Poloxamer 188", "note": "Counter-ions that a name gives are not always drawn.", "data": [{"molecule": "C=C(C)[C@@H]1CC[C@]2(C(=O)O)CC[C@]3(C)[C@H](CC[C@@H]4[C@@]5(C)CC[C@H](OC(=O)CC(C)(C)C(=O)O)C(C)(C)[C@@H]5CC[C@]43C)[C@@H]12", "note": "[Bevirimat dimeglumine, di-N-methylglucamine salt of 3-O-(3′,3′-dimethylsuccinyl)betulinic acid]", "values": [{"measurement": "solubility (in words)", "result": "limited solubility"}]}]}
